Data published in paper PMC9734138, “Structure of the AlgKX modification and secretion complex required for alginate production and biofilm attachment in Pseudomonas aeruginosa” (Nature Communications, 2022).

How the values were obtained:
[1] = molecular target: AlgKPp (Pseudomonas putida, UniProt Q88NC7); assay: Direct nanoESI-MS binding assay of the single proteins with reference protein correction for nonspecific binding, 200 mM aqueous ammonium acetate pH 7, 25 °C by the table title (21 °C in the methods).; parameters: gene algK
Experimental: (§1) AlgXPp and AlgKPp stock solutions were buffer exchanged into 200 mM aqueous ammonium acetate (pH 7) using a 10 kDa cut-off Amicon 0.5 mL microconcentrators (EMD, Millipore, Billerica, MA). Stock solutions of oligosaccharides were prepared by dissolving a known amount of solid compound in Milli-Q water and stored at −20 °C until used. Nanoelectrospray (nanoESI) mass spectrometry measurements were performed on a Q Exactive Orbitrap (Orbitrap) mass spectrometer (Thermo Fisher Scientific, Bremen, Germany) and on a Q Exactive Ultra-High Mass Range Orbitrap mass spectrometer (Thermo Fisher Scientific, Bremen, Germany), both equipped with a nanoflow ESI source. NanoESI was performed by applying a voltage of ~0.8 kV to a platinum wire inserted into the nanoESI tip, which was produced from a borosilicate glass capillary (1.0 mm o.d., 0.78 mm i.d.) pulled to ~2 μm o.d. using a P − 1000 micropipette puller (Sutter Instruments, Novato, CA). The inlet capillary of the MS was heated to 120 °C, the S-lens RF level was set at 100, automatic gain control target was set at 1 × 10^6 with a maximum injection time of 200 ms. All MS data were acquired and processed using Thermo Xcalibur 4.1 software.
(§2) Association constants (Ka,kL and Ka,xL) for interactions of AlgKPp and AlgXPp with oligosaccharide ligands were obtained using the direct ESI-MS assay[68],[69]. The binding measurements were carried out at 21 °C, and the equilibrium mixtures were prepared by mixing aliquots of the stock solutions of proteins and ligands in aqueous ammonium acetate (200 mM). ESI-MS measurements were performed after a 1 h incubation time period. All mass spectra were corrected, when needed, for the occurrence of nonspecific carbohydrate-protein binding during the ESI process using the reference protein method. Ka,kL and Ka,xL values were determined from the abundance ratio (R) of the ligand-bound (PL) to free protein (P) ions (P can be AlgKPp or AlgXPp), after correction for nonspecific ligand binding, and the initial concentrations of protein ([P]0) and ligand ([L]0), Eq. (1):1 R/R+1=KaP0+KaL0+1−(1−KaL0+KaP0)^2+4KaL0/2KaP0 where R is taken to be equal to the corresponding equilibrium concentration ratio ([PL]/[P]) in solution, Eq. (2):2 R=∑Ab(PL)/∑Ab(P)=[PL]/[P] and Ka is Ka,kL or Ka,xL.

[2] = molecular target: T1, AlgXPp (Pseudomonas putida, UniProt Q88ND0); assay: as above; parameters: gene algX
Experimental: as §1, §2
Target sequence in this assay (Q88ND0 whole entry): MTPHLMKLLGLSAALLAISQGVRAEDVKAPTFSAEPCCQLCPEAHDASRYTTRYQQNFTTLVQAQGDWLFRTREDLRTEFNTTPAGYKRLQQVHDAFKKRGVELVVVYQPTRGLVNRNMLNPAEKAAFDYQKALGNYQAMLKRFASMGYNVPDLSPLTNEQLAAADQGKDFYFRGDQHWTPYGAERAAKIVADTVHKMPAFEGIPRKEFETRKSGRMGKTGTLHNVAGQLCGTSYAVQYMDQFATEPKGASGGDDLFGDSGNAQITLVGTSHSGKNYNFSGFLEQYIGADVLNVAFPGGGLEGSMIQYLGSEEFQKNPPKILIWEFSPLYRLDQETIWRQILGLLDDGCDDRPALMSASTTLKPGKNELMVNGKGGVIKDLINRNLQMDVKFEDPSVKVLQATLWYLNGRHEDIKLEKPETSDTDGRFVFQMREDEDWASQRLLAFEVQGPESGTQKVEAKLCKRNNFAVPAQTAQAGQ

[3] = molecular target: AlgKXPp (Pseudomonas putida, UniProt Q88NC7+Q88ND0); assay: NanoESI-MS ligand titration of the AlgK-AlgX mixture, Ka,kxL fitted from the ligand-bound fraction of the complex with a coupled-equilibria model, 200 mM aqueous ammonium acetate pH 7, 25 °C by the table title (21 °C in the methods).; assay type: binding; settings: n = 3
Chain of AlgKXPp (Q88ND0 whole entry, one chain of several): as the sequence (Q88ND0 whole entry) above
Experimental: as §1
(§3) The Ka,kx for the interaction of AlgKPp and AlgXPp with the formation of AlgKXPp complex was obtained using the Slow Mixing Mode (SLOMO) ESI-MS assay. Briefly, ~2 µL of a solution of AlgXPp (5 µM) and AlgKPp (3–10 µM) was introduced into the nanoESI tip, followed by injection of 10 µL of solution of AlgXPp (5 µM) and AlgKPp (45 µM). The binding measurements were carried out at 21 °C; time-resolved mass spectra were averaged over 1 min intervals and the sum of the charge state-normalized abundances of the […] and AlgKXPp complex ions were calculated automatically using the SWARM software (https://github.com/pkitov/CUPRA-SWARM)[72]. The corrected (for response factors) abundances of AlgXPp and AlgKXPp species were used to calculate R/(R+1) values for AlgKPp (designated as L) and AlgXPp (designated as P) interaction and association constant Ka,kx was found using Eq. (1) (Ka,kx in this case designated as Ka in Eq. (1)).
(§4) 3b AlgXPpL⇌AlgXPp+L,Ka,xL=[AlgXPpL]/AlgXPp[L] 3c AlgKXPp⇌AlgKPp+AlgXPp,Ka,kx=[AlgKXPpL]/AlgKPp[AlgXPp] 3d AlgKXPpL⇌AlgKXPp+L,Ka,kxL=[AlgKXPL]/AlgKXPpLL
(§5) The corresponding mass balance equations are shown below:4a [L]0=[L]+[AlgKPpL]+[AlgXPpL]+[AlgKXPpL] 4b [AlgKPp]0=[AlgKPp]+[AlgKPpL]+[AlgKXPp]+[AlgKXPpL] 4c [AlgXPp]0=[AlgXPp]+[AlgXPpL]+[AlgKXPp]+[AlgKXPpL] where […], […], and [L]0 are initial concentrations of AlgKPp, AlgXPp, and oligosaccharide ligand L; Ka,kL, Ka,xL, and Ka,kx are association constant values determined as described above, and Ka,kxL is unknown parameter found by the fitting of the model to experimental data.

[4] = molecular target: T2, AlgKXPp complex (Pseudomonas putida, UniProt Q88NC7+Q88ND0); assay: ESI-MS alginate binding assay, AlgKXPp complex (binding model fit); settings: AlgKPp and AlgXPp 5 µM each, ligand 100 µM, ammonium acetate 200 mM pH 7.0
T2 construct: Induced cells containing either pET26b P. putida AlgK^33–484 or pET24b P. putida AlgX^∆Nterm; His6 (C); made in house; host or cells: E. coli BL21 (DE3) CodonPlus (AlgK) and E. coli Lemo21 (DE3) (AlgX)
Experimental: as §1, §4, §5

[5] = molecular target: T1, AlgXPp; assay: Slow Mixing Mode (SLOMO) ESI-MS assay of AlgKPp-AlgXPp complex formation; assay type: binding; parameters: His6 (C); made in house; host or cells: E. coli Lemo21 (DE3); settings: for Fraction of bound AlgX: mean, n = 3
Experimental: as §1, §3

[6] = read-out: Ka (M^-1) (AlgKPp), Ka (M^-1) (AlgXPp)

Molecule: CCCO[C@@H]1O[C@H](C(=O)O)[C@@H](O[C@@H]2O[C@H](C(=O)O)[C@@H](O[C@@H]3O[C@H](C(=O)O)[C@@H](O[C@@H]4O[C@H](C(=O)O)[C@@H](O[C@@H]5O[C@H](C(=O)O)[C@@H](O[C@@H]6O[C@H](C(=O)O)[C@@H](O[C@@H]7O[C@H](C(=O)O)[C@@H](O)[C@H](O)[C@@H]7O)[C@H](O)[C@@H]6O)[C@H](O)[C@@H]5O)[C@H](O)[C@@H]4O)[C@H](O)[C@@H]3O)[C@H](O)[C@@H]2O)[C@H](O)[C@@H]1O [ManA7, heptamer of beta-D-mannuronic acid (1-4 linked, polyM heptasaccharide)]
- Kd [1, 6]: 2.38 mM
- Kd [2, 6]: 3.85 mM
- Kd ([3]; read-out: Ka (M^-1) (AlgKXPp)): 1 mM

Molecule: pentadeca-hyaluronic acid [HA15, reference compound]
- ligand binding to AlgKXPp detected by ESI-MS [4]: No ligand binding was detected
- ligand binding to AlgKXPp detected by ESI-MS ([4]; listed as 15-mer of hyaluronic acid): no specific binding

Molecule: alginate hexasaccharide of alternating alpha-L-guluronate (G) and beta-D-mannuronate (M) [GMGMGM]
- Ka (M^-1) (AlgKPp); Ka (M^-1) (AlgXPp) [1]: (2.5 ± 0.1) × 10^2 M-1
- Ka (M^-1) (AlgKPp); Ka (M^-1) (AlgXPp) [2]: (4.5 ± 1.0) × 10^2 M-1
- Ka (M^-1) (AlgKXPp) [3]: (12 ± 0.7) × 10^2 M-1

Molecule: alginate heptasaccharide of alternating alpha-L-guluronate (G) and beta-D-mannuronate (M) [GMGMGMG]
- Ka (M^-1) (AlgKPp); Ka (M^-1) (AlgXPp) [2]: (2.7 ± 0.3) × 10^2 M-1
- Ka (M^-1) (AlgKXPp) [3]: (18 ± 0.6) × 10^2 M-1

Molecule: alginate hexasaccharide of alpha-L-guluronate (G) and beta-D-mannuronate (M), sequence GMGGMG
- Ka (M^-1) (AlgKPp); Ka (M^-1) (AlgXPp) [1]: (3.0 ± 0.9) × 10^2 M-1
- Ka (M^-1) (AlgKPp); Ka (M^-1) (AlgXPp) [2]: (1.4 ± 0.3) × 10^2 M-1
- Ka (M^-1) (AlgKXPp) [3]: (5.4 ± 0.5) × 10^2 M-1

B1: AlgK: P. putida KT2440 AlgK residues 33–484, His-tagged TPR-containing lipoprotein (protein)
chain: CAGLPDQRLAQEALERGDLATAQSNYQALAAMGYADAQVGLADMQVASGDSAQQAKAEKLYREAAQTSPRARARLGKWLAAKPGASDAEHREAERLLSQAFEQGEDSALVPLIVLYLQYPQSWPEIDPQQRIDQWRARGLPQADLAQIILYRTQGTYAQHLGEIEQVCQRWLRRMDVCWYELATVYQMQGNAEKQKVLLEQLRAAYKAGRVPGERVDSVAGVLADGELGQPDPQTAQALLEEIAPSYPAAWVSLAKLLYDYPDQGDLEKMLGYLKNAQDAAQPRAELLLGRLYYDGKWAPQDPRKAERHLLKAAASEPQANYYLGQIYRRGFLGKVYPQKAVDHLILAARAGQASADMALAQLWSQGRGIQPNRVNAYVFGQLAVQQQVPQASDLLGQIEAQLPPAERSQAQQLLKREQQSRGNNWQATVSLLQSQDSPINEEEPESL
- Fraction of bound AlgX ([5]; concentration of AlgK 3 µM): 0.22
- Fraction of bound AlgX ([5]; concentration of AlgK 5 µM): 0.24
- Fraction of bound AlgX ([5]; concentration of AlgK 7.5 µM): 0.31
- Fraction of bound AlgX ([5]; concentration of AlgK 10 µM): 0.42

B2: AlgKXPp: 1:1 complex of P. putida AlgK and AlgX (protein, UniProt Q88NC7 33-484; Q88ND0 25-479, looked up)
Alginate biosynthesis protein … 1: CAGLPDQRLANEALKRGDTALAERNYKALADLGYSEAQVGLADIKVATRDPSQIKEAEATYRAAAATSPRAQARLGRLLVAKPDSTQAEREEAETLLKQAAKQGQSNTLIPLAMLYLSYPQSFPKVNAQQQIDQWRAAGNPEAGLAQVLLYRTQGTYDQHLGEVEKICKAALNTTDICYVELATVYQKRGQADQQAALLGQLKSAYARGAVPATRVDSVARVLADRSLGQTDEKTAKELLEQVAPANPASWVSLAQLVYDFPELGDTDQLMAYIDKGREAEQPRAELLLGRLYYEGKTLPADAQKAEQHLQAAAEAGEISAHYYLGQLYRRGYLGNVEPQKAVDHLLAAARGGQNSADYALAQLFSEGHGIRPQPGNAWVFAQLSQANPTPQSAELLQQLDQQLTPDQRNQAQQLLDQEKRARGSLAQGANSTLALEALQDDEKEVDGEDSL
Alginate biosynthesis protein … 2: EDVKAPTFSAEPCCQLCPEAHDASRYTTRYQQNFTTLVQAQGDWLFRTREDLRTEFNTTPAGYKRLQQVHDAFKKRGVELVVVYQPTRGLVNRNMLNPAEKAAFDYQKALGNYQAMLKRFASMGYNVPDLSPLTNEQLAAADQGKDFYFRGDQHWTPYGAERAAKIVADTVHKMPAFEGIPRKEFETRKSGRMGKTGTLHNVAGQLCGTSYAVQYMDQFATEPKGASGGDDLFGDSGNAQITLVGTSHSGKNYNFSGFLEQYIGADVLNVAFPGGGLEGSMIQYLGSEEFQKNPPKILIWEFSPLYRLDQETIWRQILGLLDDGCDDRPALMSASTTLKPGKNELMVNGKGGVIKDLINRNLQMDVKFEDPSVKVLQATLWYLNGRHEDIKLEKPETSDTDGRFVFQMREDEDWASQRLLAFEVQGPESGTQKVEAKLCKRNNFAVPAQTAQAGQ
- association constant (Ka) for 1:1 AlgKXPp complex formation ([5]; SLOMO ESI-MS, AlgXPp 5 µM, 21 °C): 8.9 ± 0.9 × 10^4 M^−1
